HELM strings list units from the 5' end as sugar, base in round brackets, then linkage (d deoxyribose, r ribose, m 2'-O-methyl, p phosphodiester). Strings are as the collection lists them; they lack the last nucleoside at the 3' end of the tested compound. [moe] = 2'-O-(2-methoxyethyl) (MOE); [sp] = phosphorothioate linkage; [m5C] = 5-methylcytosine
Molecular target: UBE3A-ATS
Assay: mouse, dose not given
Conditions: ASO

Substance	3 h FOB score [score 0-7]
RNA1{[moe](G)[sp].[moe](T)p.[moe](A)p.[moe]([m5C])p.[moe](A)p.d(A)[sp].d(T)[sp].d(G)[sp].d([m5C])[sp].d(A)[sp].d(T)[sp].d(G)[sp].d(T)[sp].d(G)[sp].d(G)[sp].[moe](G)p.[moe]([m5C])p.[moe]([m5C])[sp].[moe](T)}$$$$ (last 3' nucleoside missing)	4
RNA1{[moe]([m5C])[sp].[moe](A)p.[moe](G)p.[moe](T)p.[moe](T)[sp].d(A)[sp].d(G)[sp].d(G)[sp].d(T)[sp].d(T)[sp].d(A)[sp].d(G)[sp].d(T)[sp].[moe](G)p.[moe]([m5C])p.[moe](A)[sp].[moe]([m5C])}$$$$ (last 3' nucleoside missing)	4
RNA1{[moe]([m5C])[sp].[moe](A)p.[moe](G)p.[moe](T)p.[moe](T)p.[moe](A)[sp].d(G)[sp].d(G)[sp].d(T)[sp].d(T)[sp].d(A)[sp].d(G)[sp].d(T)[sp].d(G)[sp].[moe]([m5C])p.[moe](A)[sp].[moe]([m5C])}$$$$ (last 3' nucleoside missing)	3.7
RNA1{[moe](G)[sp].[moe]([m5C])p.[moe](T)p.[moe]([m5C])p.[moe](A)[sp].d(G)[sp].d(T)[sp].d(T)[sp].d(A)[sp].d(G)[sp].d(G)[sp].d(T)[sp].d(T)[sp].[moe](A)p.[moe](G)p.[moe](T)[sp].[moe](G)}$$$$ (last 3' nucleoside missing)	2.3
RNA1{[moe](A)[sp].[moe]([m5C])p.[moe](G)p.[moe]([m5C])[sp].d(A)[sp].d(A)[sp].d(T)[sp].d(G)[sp].d(T)[sp].d(A)[sp].d(T)[sp].d([m5C])[sp].[moe](A)p.[moe](G)p.[moe](G)p.[moe]([m5C])[sp].[moe](A)}$$$$ (last 3' nucleoside missing)	1
RNA1{[moe](G)[sp].[moe](T)p.[moe](T)p.[moe](T)p.[moe](T)p.d([m5C])[sp].d(G)[sp].d([m5C])[sp].d([m5C])[sp].d([m5C])[sp].d(G)[sp].d(T)[sp].d(T)[sp].d(A)[sp].d([m5C])[sp].[moe]([m5C])p.[moe](T)p.[moe]([m5C])[sp].[moe](A)}$$$$ (last 3' nucleoside missing)	5.3
RNA1{[moe](T)[sp].[moe]([m5C])p.[moe](A)p.[moe](A)p.[moe]([m5C])[sp].d([m5C])[sp].d(A)[sp].d(A)[sp].d(T)[sp].d(T)[sp].d(T)[sp].d(G)[sp].d([m5C])[sp].[moe](T)p.[moe](A)p.[moe](T)[sp].[moe](T)}$$$$ (last 3' nucleoside missing)	3
RNA1{[moe](T)[sp].[moe](G)p.[moe](T)p.[moe](A)p.[moe](T)p.d([m5C])[sp].d(A)[sp].d(G)[sp].d(G)[sp].d([m5C])[sp].d(A)[sp].d(A)[sp].d([m5C])[sp].d(A)[sp].d(G)[sp].[moe](A)p.[moe](A)p.[moe](T)[sp].[moe]([m5C])}$$$$ (last 3' nucleoside missing)	4.7
RNA1{[moe](G)[sp].[moe](G)p.[moe](T)p.[moe](T)p.[moe](T)p.d(A)[sp].d(G)[sp].d(G)[sp].d(T)[sp].d([m5C])[sp].d(A)[sp].d(A)[sp].d([m5C])[sp].d([m5C])[sp].d(A)[sp].[moe](A)p.[moe](T)p.[moe](T)[sp].[moe](T)}$$$$ (last 3' nucleoside missing)	6
RNA1{[moe](T)[sp].[moe]([m5C])p.[moe](A)p.[moe](G)p.[moe](T)p.d(T)[sp].d(A)[sp].d(G)[sp].d(G)[sp].d(T)[sp].d(T)[sp].d(A)[sp].d(G)[sp].d(T)[sp].d(G)[sp].[moe]([m5C])p.[moe](A)p.[moe]([m5C])[sp].[moe](A)}$$$$ (last 3' nucleoside missing)	5
RNA1{[moe](T)[sp].[moe](T)p.[moe]([m5C])p.[moe](T)p.[moe]([m5C])p.d(A)[sp].d([m5C])[sp].d([m5C])[sp].d(T)[sp].d(A)[sp].d(G)[sp].d(G)[sp].d([m5C])[sp].d(T)[sp].d(G)[sp].[moe](G)p.[moe](G)p.[moe]([m5C])[sp].[moe]([m5C])}$$$$ (last 3' nucleoside missing)	2.8
RNA1{[moe]([m5C])[sp].[moe](T)p.[moe]([m5C])p.[moe](A)p.[moe](G)p.[moe](T)[sp].d(T)[sp].d(A)[sp].d(G)[sp].d(G)[sp].d(T)[sp].d(T)[sp].d(A)[sp].d(G)[sp].[moe](T)p.[moe](G)[sp].[moe]([m5C])}$$$$ (last 3' nucleoside missing)	6.3
RNA1{[moe](T)[sp].[moe]([m5C])p.[moe](A)p.[moe](G)[sp].d(T)[sp].d(T)[sp].d(A)[sp].d(G)[sp].d(G)[sp].d(T)[sp].d(T)[sp].d(A)[sp].[moe](G)p.[moe](T)p.[moe](G)p.[moe]([m5C])[sp].[moe](A)}$$$$ (last 3' nucleoside missing)	2.3
RNA1{[moe](T)[sp].[moe]([m5C])p.[moe](A)p.[moe](A)p.[moe]([m5C])p.d(T)[sp].d(A)[sp].d(T)[sp].d(T)[sp].d(T)[sp].d([m5C])[sp].d(T)[sp].d(A)[sp].d(T)[sp].d([m5C])[sp].[moe](A)p.[moe](A)p.[moe](G)[sp].[moe](G)}$$$$ (last 3' nucleoside missing)	0
RNA1{[moe]([m5C])[sp].[moe](A)p.[moe](T)p.[moe](T)p.[moe](A)p.d(T)[sp].d(T)[sp].d([m5C])[sp].d(A)[sp].d(A)[sp].d(T)[sp].d(T)[sp].d(A)[sp].d(A)[sp].d(G)[sp].[moe](G)p.[moe](G)p.[moe](T)[sp].[moe](G)}$$$$ (last 3' nucleoside missing)	4
RNA1{[moe](A)[sp].[moe]([m5C])p.[moe](G)p.[moe]([m5C])p.[moe](A)p.[moe](A)[sp].d(T)[sp].d(G)[sp].d(T)[sp].d(A)[sp].d(T)[sp].d([m5C])[sp].d(A)[sp].d(G)[sp].[moe](G)p.[moe]([m5C])[sp].[moe](A)}$$$$ (last 3' nucleoside missing)	0
RNA1{[moe](T)[sp].[moe](G)p.[moe](G)p.[moe](T)p.[moe]([m5C])p.[moe](A)p.d(T)[sp].d([m5C])[sp].d(T)[sp].d([m5C])[sp].d(G)[sp].d(G)[sp].d(G)[sp].d(T)[sp].d(A)[sp].d(T)[sp].[moe](A)p.[moe](T)[sp].[moe](A)}$$$$ (last 3' nucleoside missing)	6
RNA1{[moe]([m5C])[sp].[moe](A)p.[moe]([m5C])p.[moe](A)p.[moe](T)p.d(T)[sp].d(A)[sp].d([m5C])[sp].d([m5C])[sp].d([m5C])[sp].d(A)[sp].d(T)[sp].d([m5C])[sp].d([m5C])[sp].d(G)[sp].[moe](T)p.[moe](T)p.[moe]([m5C])[sp].[moe](T)}$$$$ (last 3' nucleoside missing)	0
RNA1{[moe](G)[sp].[moe](T)p.[moe](A)p.[moe](G)p.[moe](G)p.d(A)[sp].d(G)[sp].d(A)[sp].d(T)[sp].d(A)[sp].d(G)[sp].d(G)[sp].d([m5C])[sp].d(A)[sp].d(G)[sp].[moe](T)p.[moe](G)p.[moe]([m5C])[sp].[moe](A)}$$$$ (last 3' nucleoside missing)	5
RNA1{[moe]([m5C])[sp].[moe](G)p.[moe](T)p.[moe](G)[sp].d(A)[sp].d(G)[sp].d([m5C])[sp].d(T)[sp].d(A)[sp].d(T)[sp].d([m5C])[sp].d(T)[sp].[moe](G)p.[moe](T)p.[moe](A)p.[moe]([m5C])[sp].[moe](A)}$$$$ (last 3' nucleoside missing)	1
RNA1{[moe](G)[sp].[moe]([m5C])p.[moe]([m5C])p.[moe](A)p.[moe](G)p.[moe](G)[sp].d(T)[sp].d(G)[sp].d(T)[sp].d([m5C])[sp].d(T)[sp].d(T)[sp].d(A)[sp].d(T)[sp].[moe](A)p.[moe](T)[sp].[moe]([m5C])}$$$$ (last 3' nucleoside missing)	0
RNA1{[moe]([m5C])[sp].[moe](A)p.[moe](A)p.[moe]([m5C])p.[moe](T)p.d(T)[sp].d([m5C])[sp].d(A)[sp].d(T)[sp].d([m5C])[sp].d(A)[sp].d(A)[sp].d(T)[sp].d(A)[sp].d(T)[sp].[moe](T)p.[moe](T)p.[moe]([m5C])[sp].[moe]([m5C])}$$$$ (last 3' nucleoside missing)	1
RNA1{[moe](G)[sp].[moe](T)p.[moe](T)p.[moe](T)p.[moe](T)p.d(T)[sp].d([m5C])[sp].d([m5C])[sp].d(A)[sp].d(T)[sp].d(T)[sp].d(T)[sp].d(T)[sp].d(T)[sp].d([m5C])[sp].[moe](T)p.[moe]([m5C])p.[moe](T)[sp].[moe](T)}$$$$ (last 3' nucleoside missing)	0
RNA1{[moe](G)[sp].[moe](G)p.[moe](T)p.[moe]([m5C])p.[moe](A)p.d(T)[sp].d([m5C])[sp].d(T)[sp].d([m5C])[sp].d(G)[sp].d(G)[sp].d(G)[sp].d(T)[sp].d(A)[sp].d(T)[sp].[moe](A)p.[moe](T)p.[moe](A)[sp].[moe](A)}$$$$ (last 3' nucleoside missing)	4.2
RNA1{[moe]([m5C])[sp].[moe](A)p.[moe](G)p.[moe](A)p.[moe](G)p.d(T)[sp].d(G)[sp].d(T)[sp].d([m5C])[sp].d(T)[sp].d(T)[sp].d(A)[sp].d(G)[sp].d(G)[sp].d(G)[sp].[moe](T)p.[moe]([m5C])p.[moe](T)[sp].[moe]([m5C])}$$$$ (last 3' nucleoside missing)	5.5
RNA1{[moe](T)[sp].[moe](T)p.[moe](G)p.[moe]([m5C])p.[moe](T)p.d(G)[sp].d(A)[sp].d(T)[sp].d([m5C])[sp].d(A)[sp].d([m5C])[sp].d(A)[sp].d(T)[sp].d(T)[sp].d(A)[sp].[moe]([m5C])p.[moe]([m5C])p.[moe]([m5C])[sp].[moe](A)}$$$$ (last 3' nucleoside missing)	0
RNA1{[moe](A)[sp].[moe](T)p.[moe]([m5C])p.[moe](T)p.[moe](G)p.d(G)[sp].d(T)[sp].d([m5C])[sp].d(T)[sp].d(T)[sp].d(G)[sp].d(G)[sp].d(G)[sp].d(A)[sp].d(T)[sp].[moe](T)p.[moe](A)p.[moe](T)[sp].[moe](A)}$$$$ (last 3' nucleoside missing)	4.8
